# Results published in the NIST ThermoML archive (doi:10.1021/acs.jced.9b00046).
# Numbers after ± are expanded uncertainties.
# Conditions: 99.6 kPa, Liquid; for viscosity: Capillary tube (Ostwald / Ubbelohde) method; for mass density: Vibrating tube method
smiles,measurement,setting,value
CNC(C)=O [N-methylacetamide],viscosity,308.15 K,3.488 ± 0.043 mPa·s
same,mass density,308.15 K,945.71 ± 1.9 kg/m3
same,viscosity,313.15 K,3.073 ± 0.038 mPa·s
same,mass density,313.15 K,941.53 ± 1.9 kg/m3
same,viscosity,318.15 K,2.723 ± 0.034 mPa·s
same,mass density,318.15 K,937.33 ± 1.9 kg/m3
same,viscosity,323.15 K,2.438 ± 0.03 mPa·s
same,mass density,323.15 K,933.16 ± 1.9 kg/m3
same,viscosity,328.15 K,2.194 ± 0.027 mPa·s
same,mass density,328.15 K,928.93 ± 1.9 kg/m3
